Data published in ChEMBL document CHEMBL5550126, “Identification of naphthalimide-derivatives as novel PBD-targeted polo-like kinase 1 inhibitors with efficacy in drug-resistant lung cancer cells” (Eur J Med Chem, 2024).

Tests used:
[1] = target: Serine/threonine-protein kinase PLK1 (Homo sapiens, UniProt P53350); test: Binding affinity to recombinant PLK1 (unknown origin) assessed as dissociation constant by SPR analysis
MCF7 = test: Anticancer activity against human MCF7 cells assessed as inhibition of cell growth incubated for 48 hrs by crystal violet staining based analysis; assay type: functional; conditions: MCF7, 48 h
SK-OV-3 = test: Anticancer activity against human SK-OV-3 cells assessed as inhibition of cell growth incubated for 48 hrs by crystal violet staining based analysis; assay type: functional; conditions: SK-OV-3, 48 h
NCI-H460 = test: Anticancer activity against human NCI-H460 cells assessed as inhibition of cell growth incubated for 48 hrs by crystal violet staining based analysis; assay type: functional; conditions: NCI-H460, 48 h
MGC-803 = test: Anticancer activity against human MGC-803 cells assessed as inhibition of cell growth incubated for 48 hrs by crystal violet staining based analysis; assay type: functional; conditions: MGC-803, 48 h
T-24 = test: Anticancer activity against human T24 cells assessed as inhibition of cell growth incubated for 48 hrs by crystal violet staining based analysis; assay type: functional; conditions: T-24, 48 h
[2] = Octanol-water partition coefficient, logP of the compound; assay type: physicochemical
A549/CDDP = test: Anticancer activity against human A549/DDP cells assessed as inhibition of cell growth incubated for 48 hrs by crystal violet staining based analysis; assay type: functional

Sequence of Serine/threonine-protein kinase PLK1 (P53350 whole entry): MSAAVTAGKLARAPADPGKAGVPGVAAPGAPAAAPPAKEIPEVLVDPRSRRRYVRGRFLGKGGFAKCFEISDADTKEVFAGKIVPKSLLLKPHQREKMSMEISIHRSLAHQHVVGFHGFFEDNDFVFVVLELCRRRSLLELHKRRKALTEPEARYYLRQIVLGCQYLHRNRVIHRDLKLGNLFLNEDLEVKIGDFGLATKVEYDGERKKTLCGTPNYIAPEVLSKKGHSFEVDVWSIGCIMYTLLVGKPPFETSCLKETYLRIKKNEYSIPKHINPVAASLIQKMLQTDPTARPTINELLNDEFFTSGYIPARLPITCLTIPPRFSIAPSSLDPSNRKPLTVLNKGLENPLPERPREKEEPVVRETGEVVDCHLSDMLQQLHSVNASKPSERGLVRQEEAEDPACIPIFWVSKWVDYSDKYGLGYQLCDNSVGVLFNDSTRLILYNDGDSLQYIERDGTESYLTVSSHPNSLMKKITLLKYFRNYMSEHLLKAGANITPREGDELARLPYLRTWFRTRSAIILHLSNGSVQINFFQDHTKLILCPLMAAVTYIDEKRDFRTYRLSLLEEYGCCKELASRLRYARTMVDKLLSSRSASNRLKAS

CN(C)CCN1C(=O)c2cccc3c(S(=O)(=O)NCc4ccccc4F)ccc(c23)C1=O
Kd [1]: 2.79 µM | IC50 (MCF7): 5.38 µM | IC50 (SK-OV-3): 2.95 µM | IC50 (NCI-H460): 10.8 µM | IC50 (MGC-803): 5.46 µM | IC50 (T-24): 3.86 µM

COc1ccc(CNS(=O)(=O)c2ccc3c4c(cccc24)C(=O)N(CCN2CCCC2)C3=O)cc1
Kd [1]: 16.8 µM | IC50 (MCF7): 10.3 µM | IC50 (SK-OV-3): 5.19 µM | IC50 (NCI-H460): 5.37 µM | IC50 (MGC-803): 4.04 µM | IC50 (T-24): 8.6 µM

COc1ccc(CNS(=O)(=O)c2ccc3c4c(cccc24)C(=O)N(CCN(C)C)C3=O)cc1
Kd [1]: 8.06 µM | IC50 (MCF7): 10.2 µM | IC50 (SK-OV-3): 4.99 µM | IC50 (NCI-H460): 9.37 µM | IC50 (MGC-803): 6.44 µM | IC50 (T-24): 5.31 µM

O=C1c2cccc3c(Sc4ccc([N+](=O)[O-])cc4)ccc(c23)C(=O)N1CCN1CCCC1
Kd [1]: 15.4 µM | IC50 (MCF7): 10.8 µM | IC50 (SK-OV-3): 12.2 µM | logP [2]: 4.26 | IC50 (NCI-H460): 15.6 µM | IC50 (A549/CDDP): > 20 µM | IC50 (MGC-803): 11.2 µM | IC50 (T-24): 9.23 µM

O=C1c2cccc3c(S(=O)(=O)NCc4ccccc4)ccc(c23)C(=O)N1CCN1CCCCC1
Kd [1]: 2.03 µM | IC50 (MCF7): 15.4 µM | IC50 (SK-OV-3): 12 µM | IC50 (NCI-H460): 8.17 µM | IC50 (MGC-803): 5.16 µM | IC50 (T-24): 2.75 µM

O=C1c2cccc3c(S(=O)(=O)NCc4ccc(C(F)(F)F)cc4)ccc(c23)C(=O)N1CCN1CCCCC1
Kd [1]: 4.24 µM | IC50 (MCF7): 16.9 µM | IC50 (SK-OV-3): 9.21 µM | IC50 (NCI-H460): 4.29 µM | IC50 (MGC-803): 5.56 µM | IC50 (T-24): 8.19 µM

O=C1c2cccc3c(S(=O)(=O)NCc4ccc(F)cc4)ccc(c23)C(=O)N1CCN1CCCCC1
Kd [1]: 3.95 µM | IC50 (MCF7): 9.62 µM | IC50 (SK-OV-3): 8.53 µM | IC50 (NCI-H460): 4.28 µM | IC50 (MGC-803): 5.43 µM | IC50 (T-24): 1.76 µM

CN(C)CCN1C(=O)c2cccc3c(S(=O)(=O)NCc4ccc(C(F)(F)F)cc4)ccc(c23)C1=O
Kd [1]: 5.26 µM | IC50 (MCF7): 6.24 µM | IC50 (SK-OV-3): 7.42 µM | IC50 (NCI-H460): 8.28 µM | IC50 (MGC-803): 5.95 µM | IC50 (T-24): 2.57 µM

COc1ccc(CNS(=O)(=O)c2ccc3c4c(cccc24)C(=O)N(CCN2CCCCC2)C3=O)cc1
Kd [1]: 20.1 µM | IC50 (MCF7): 18.2 µM | IC50 (SK-OV-3): 20.5 µM | IC50 (NCI-H460): 5 µM | IC50 (MGC-803): 8.1 µM | IC50 (T-24): 4.51 µM

CN(C)CCN1C(=O)c2cccc3c(S(=O)(=O)NCc4cccc(F)c4)ccc(c23)C1=O
Kd [1]: 17.5 µM | IC50 (MCF7): 7.29 µM | IC50 (SK-OV-3): 3.11 µM | IC50 (NCI-H460): 9.77 µM | IC50 (MGC-803): 4.98 µM | IC50 (T-24): 2.97 µM

Cc1ccc(CNS(=O)(=O)c2ccc3c4c(cccc24)C(=O)N(CCN2CCCCC2)C3=O)cc1
Kd [1]: 20.9 µM | IC50 (MCF7): 4.55 µM | IC50 (SK-OV-3): 10.7 µM | IC50 (NCI-H460): 4.8 µM | IC50 (MGC-803): 7.29 µM | IC50 (T-24): 9.09 µM

Cc1ccc(CNS(=O)(=O)c2ccc3c4c(cccc24)C(=O)N(CCN2CCCC2)C3=O)cc1
Kd [1]: 17.3 µM | IC50 (MCF7): 6.75 µM | IC50 (SK-OV-3): 3.98 µM | IC50 (NCI-H460): 8.25 µM | IC50 (MGC-803): 4.17 µM | IC50 (T-24): 5.53 µM

O=C1c2cccc3c(S(=O)(=O)NCc4ccc(C(F)(F)F)cc4)ccc(c23)C(=O)N1CCN1CCCC1
Kd [1]: 7.36 µM | IC50 (MCF7): 5.01 µM | IC50 (SK-OV-3): 4.22 µM | IC50 (NCI-H460): 4.77 µM | IC50 (MGC-803): 3.38 µM | IC50 (T-24): 4.99 µM

CN(C)CCN1C(=O)c2cccc3c(S(=O)(=O)NCc4ccccc4)ccc(c23)C1=O
Kd [1]: 16.8 µM | IC50 (MCF7): 14.7 µM | IC50 (SK-OV-3): 1.8 µM | IC50 (NCI-H460): 11.5 µM | IC50 (MGC-803): 3.71 µM | IC50 (T-24): 7.11 µM

O=C1c2cccc3c(S(=O)(=O)NCc4ccccc4)ccc(c23)C(=O)N1CCN1CCCC1
Kd [1]: 19.2 µM | IC50 (MCF7): 10.3 µM | IC50 (SK-OV-3): 7.05 µM | IC50 (NCI-H460): 17.6 µM | IC50 (MGC-803): 4.96 µM | IC50 (T-24): 4.07 µM

Cc1ccc(CNS(=O)(=O)c2ccc3c4c(cccc24)C(=O)N(CCN(C)C)C3=O)cc1
Kd [1]: 14.2 µM | IC50 (MCF7): 10.5 µM | IC50 (SK-OV-3): 6.64 µM | IC50 (NCI-H460): 12.5 µM | IC50 (MGC-803): 7.4 µM | IC50 (T-24): 5.89 µM

CC[C@@H]1C(=O)N(C)c2cnc(Nc3ccc(C(=O)N[C@H]4CC[C@H](N5CCN(CC6CC6)CC5)CC4)cc3OC)nc2N1C(C)C [VOLASERTIB]
Kd [1]: 0.9 µM

O=C1c2cccc3c(S(=O)(=O)NCc4ccc(F)cc4)ccc(c23)C(=O)N1CCN1CCCC1
Kd [1]: 2.15 µM | IC50 (MCF7): 3.29 µM | IC50 (SK-OV-3): 4.5 µM | IC50 (NCI-H460): 2.8 µM | IC50 (MGC-803): 3.41 µM | IC50 (T-24): 2.51 µM
